# Reference: patent US12594276B2, “Inhibitors of human immunodeficiency virus replication” (ViiV Healthcare UK (No.5) Limited, priority 2024, dated 2026)
# Experiments:
# [1] = Compound cytotoxicity, XTT-based colorimetric assay; format: cell-based; conditions: human; uninfected MT2 cells, day 4, XTT; read-out: CC50
# Procedure, shortened: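 Uninfected MT2 cells were treated with compound under the same protocol as the antiviral assay. Viability was read on day 4 with an XTT colorimetric assay, from which CC50 values were derived.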
# [2] = tested on: recombinant NL4-3 virus (nef section replaced with Renilla luciferase gene) in MT-2 cells; assay: HIV cell culture assay (antiviral activity, luciferase readout); format: cell-based; conditions: Renilla, NL43, MT-2 cells infected for 4-5 days with recombinant NL4-3 Renilla luciferase virus
# Procedure, shortened: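 EC50 was derived by median-effect fitting of Renilla luciferase signal from MT-2 cells. These cells were infected for 4–5 days with NL4-3 reporter virus (nef partly replaced by luciferase; made in 293T cells) in the presence of serially diluted compound. Activity was quantified with a live-cell luciferase substrate.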
compound,measurement,setting,value
"COCCn1nc(NS(C)(=O)=O)c2c(Cl)ccc(-n3c([C@H](Cc4cc(F)cc(F)c4)NC(=O)Cn4nc(C(F)F)c5c4C(F)(F)[C@@H]4C[C@H]54)nc4nc(C5CCC(F)(F)CC5)cc(C)c4c3=O)c21 (atropisomer, axis not shown; (P)) [Example 84, N-[(1S)-1-[(3P)-3-[4-chloro-3-methanesulfonamido-1-(2-methoxyethyl)-1H-indazol-7-yl]-7-(4,4-difluorocyclohexyl)-5-methyl-4-oxo-3H,4H-pyrido[2,3-d]pyrimidin-2-yl]-2-(3,5-difluorophenyl)ethyl]-2-[(2S,4R)-9-(difluoromethyl)-5,5-difluoro-7,8-diazatricyclo[4.3.0.0^2,^4]nona-1(6),8-dien-7-yl]acetamide]",CC50 at 4 days,[1],> 50 nM
same,EC50,[2],0.016 nM
"COCCCn1nc(NS(C)(=O)=O)c2c(Cl)ccc(-n3c([C@H](Cc4cc(F)cc(F)c4)NC(=O)Cn4nc(C(F)F)c5c4C[C@@H]4C[C@H]54)nc4nc(C5CCC(F)(F)CC5)cc(C)c4c3=O)c21 (atropisomer, axis not shown; (P)) [Example 86, N-[(1S)-1-[(3P)-3-[4-chloro-3-methanesulfonamido-1-(3-methoxypropyl)-1H-indazol-7-yl]-7-(4,4-difluorocyclohexyl)-5-methyl-4-oxo-3H,4H-pyrido[2,3-d]pyrimidin-2-yl]-2-(3,5-difluorophenyl)ethyl]-2-[(2S,4S)-9-(difluoromethyl)-7,8-diazatricyclo[4.3.0.0^2,^4]nona-1(6),8-dien-7-yl]acetamide]",CC50 at 4 days,[1],> 50 nM
same,EC50,[2],0.011 nM
"COCCCn1nc(NS(C)(=O)=O)c2c(Cl)ccc(-n3c([C@H](Cc4cc(F)cc(F)c4)NC(=O)Cn4nc(C5CC5)c5c4C[C@@H]4C[C@H]54)nc4nc(C5CCC(F)(F)CC5)cc(C)c4c3=O)c21 (atropisomer, axis not shown; (P)) [Example 87, N-[(1S)-1-[(3P)-3-[4-chloro-3-methanesulfonamido-1-(3-methoxypropyl)-1H-indazol-7-yl]-7-(4,4-difluorocyclohexyl)-5-methyl-4-oxo-3H,4H-pyrido[2,3-d]pyrimidin-2-yl]-2-(3,5-difluorophenyl)ethyl]-2-[(2S,4S)-9-cyclopropyl-7,8-diazatricyclo[4.3.0.0^2,^4]nona-1(6),8-dien-7-yl]acetamide]",CC50 at 4 days,[1],> 50 nM
same,EC50,[2],0.019 nM
"COCCCn1nc(NS(C)(=O)=O)c2c(Cl)ccc(-n3c([C@H](Cc4cc(F)cc(F)c4)NC(=O)Cn4nc(C(F)(F)F)c5c4C[C@@H]4C[C@H]54)nc4nc(C5CCC(F)(F)CC5)cc(C)c4c3=O)c21 (atropisomer, axis not shown; (P)) [Example 88, N-[(1S)-1-[(3P)-3-[4-chloro-3-methanesulfonamido-1-(3-methoxypropyl)-1H-indazol-7-yl]-7-(4,4-difluorocyclohexyl)-5-methyl-4-oxo-3H,4H-pyrido[2,3-d]pyrimidin-2-yl]-2-(3,5-difluorophenyl)ethyl]-2-[(2S,4S)-9-(trifluoromethyl)-7,8-diazatricyclo[4.3.0.0^2,^4]nona-1(6),8-dien-7-yl]acetamide]",CC50 at 4 days,[1],> 50 nM
same,EC50,[2],0.021 nM
"COCCCn1nc(NS(C)(=O)=O)c2c(Cl)ccc(-n3c([C@H](Cc4cc(F)cc(F)c4)NC(=O)Cn4nc(C(F)(F)F)c5c4C(F)(F)[C@@H]4C[C@H]54)nc4nc(C5CCC(F)(F)CC5)cc(C)c4c3=O)c21 (atropisomer, axis not shown; (P)) [Example 89, N-[(1S)-1-[(3P)-3-[4-chloro-3-methanesulfonamido-1-(3-methoxypropyl)-1H-indazol-7-yl]-7-(4,4-difluorocyclohexyl)-5-methyl-4-oxo-3H,4H-pyrido[2,3-d]pyrimidin-2-yl]-2-(3,5-difluorophenyl)ethyl]-2-[(2S,4R)-5,5-difluoro-9-(trifluoromethyl)-7,8-diazatricyclo[4.3.0.0^2,^4]nona-1(6),8-dien-7-yl]acetamide]",CC50 at 4 days,[1],> 50 nM
same,EC50,[2],0.014 nM
"COCCCn1nc(NS(C)(=O)=O)c2c(Cl)ccc(-n3c([C@H](Cc4cc(F)cc(F)c4)NC(=O)Cn4nc(C(F)F)c5c4C(F)(F)[C@@H]4C[C@H]54)nc4nc(C5CCC(F)(F)CC5)cc(C)c4c3=O)c21 (atropisomer, axis not shown; (P)) [Example 90, N-[(1S)-1-[(3P)-3-[4-chloro-3-methanesulfonamido-1-(3-methoxypropyl)-1H-indazol-7-yl]-7-(4,4-difluorocyclohexyl)-5-methyl-4-oxo-3H,4H-pyrido[2,3-d]pyrimidin-2-yl]-2-(3,5-difluorophenyl)ethyl]-2-[(2S,4R)-9-(difluoromethyl)-5,5-difluoro-7,8-diazatricyclo[4.3.0.0^2,^4]nona-1(6),8-dien-7-yl]acetamide]",CC50 at 4 days,[1],> 50 nM
same,EC50,[2],0.018 nM
"Cc1cc(C2CCC(F)(F)CC2)nc2nc([C@H](Cc3cc(F)cc(F)c3)NC(=O)Cn3nc(C(F)F)c4c3C(F)(F)[C@@H]3C[C@H]43)n(-c3ccc(Cl)c4c(NS(C)(=O)=O)nn(CCOC(F)F)c34)c(=O)c12 (atropisomer, axis not shown; (P)) [Example 94, N-[(1S)-1-[(3P)-3-{4-chloro-1-[2-(difluoromethoxy)ethyl]-3-methanesulfonamido-1H-indazol-7-yl}-7-(4,4-difluorocyclohexyl)-5-methyl-4-oxo-3H,4H-pyrido[2,3-d]pyrimidin-2-yl]-2-(3,5-difluorophenyl)ethyl]-2-[(2S,4R)-9-(difluoromethyl)-5,5-difluoro-7,8-diazatricyclo[4.3.0.0^2,^4]nona-1(6),8-dien-7-yl]acetamide]",CC50 at 4 days,[1],> 50 nM
same,EC50,[2],0.023 nM
"Cc1cc(C2CCC(F)(F)CC2)nc2nc([C@H](Cc3cc(F)cc(F)c3)NC(=O)Cn3nc(C(F)F)c4c3C(F)(F)[C@@H]3C[C@H]43)n(-c3ccc(Cl)c4c(NS(C)(=O)=O)nn(CCN5CCOCC5)c34)c(=O)c12 (atropisomer, axis not shown; (P)) [Example 105, N-[(1S)-1-[(3P)-3-{4-chloro-3-methanesulfonamido-1-[2-(morpholin-4-yl)ethyl]-1H-indazol-7-yl}-7-(4,4-difluorocyclohexyl)-5-methyl-4-oxo-3H,4H-pyrido[2,3-d]pyrimidin-2-yl]-2-(3,5-difluorophenyl)ethyl]-2-[(2S,4R)-9-(difluoromethyl)-5,5-difluoro-7,8-diazatricyclo[4.3.0.0^2,^4]nona-1(6),8-dien-7-yl]acetamide]",CC50 at 4 days,[1],> 50 nM
same,EC50,[2],0.011 nM
"Cc1cc(C2CCC(F)(F)CC2)nc2nc([C@H](Cc3cc(F)cc(F)c3)NC(=O)Cn3nc(C4CC4)c4c3C(F)(F)[C@@H]3C[C@H]43)n(-c3ccc(Cl)c4c(NS(C)(=O)=O)nn(CCN5CCOCC5)c34)c(=O)c12 (atropisomer, axis not shown; (P)) [Example 112, N-[(1S)-1-[(3P)-3-{4-chloro-3-methanesulfonamido-1-[2-(morpholin-4-yl)ethyl]-1H-indazol-7-yl}-7-(4,4-difluorocyclohexyl)-5-methyl-4-oxo-3H,4H-pyrido[2,3-d]pyrimidin-2-yl]-2-(3,5-difluorophenyl)ethyl]-2-[(2S,4R)-9-cyclopropyl-5,5-difluoro-7,8-diazatricyclo[4.3.0.0^2,^4]nona-1(6),8-dien-7-yl]acetamide]",CC50 at 4 days,[1],> 50 nM
same,EC50,[2],0.013 nM
"Cc1cc(C2CCC(F)(F)CC2)nc2nc([C@H](Cc3cc(F)cc(F)c3)NC(=O)Cn3nc(C4CC4)c4c3C[C@@H]3C[C@H]43)n(-c3ccc(Cl)c4c(NS(C)(=O)=O)nn(CCN5CCOCC5)c34)c(=O)c12 (atropisomer, axis not shown; (P)) [Example 114, N-[(1S)-1-[(3P)-3-{4-chloro-3-methanesulfonamido-1-[2-(morpholin-4-yl)ethyl]-1H-indazol-7-yl}-7-(4,4-difluorocyclohexyl)-5-methyl-4-oxo-3H,4H-pyrido[2,3-d]pyrimidin-2-yl]-2-(3,5-difluorophenyl)ethyl]-2-[(2S,4S)-9-cyclopropyl-7,8-diazatricyclo[4.3.0.0^2,^4]nona-1(6),8-dien-7-yl]acetamide]",CC50 at 4 days,[1],> 50 nM
same,EC50,[2],0.013 nM
"Cc1cc(C2CCC(F)(F)CC2)nc2nc([C@H](Cc3cc(F)cc(F)c3)NC(=O)Cn3nc(C(F)(F)F)c4c3C[C@@H]3C[C@H]43)n(-c3ccc(Cl)c4c(NS(C)(=O)=O)nn(CCN5CCOCC5)c34)c(=O)c12 (atropisomer, axis not shown; (P)) [Example 115, N-[(1S)-1-[(3P)-3-{4-chloro-3-methanesulfonamido-1-[2-(morpholin-4-yl)ethyl]-1H-indazol-7-yl}-7-(4,4-difluorocyclohexyl)-5-methyl-4-oxo-3H,4H-pyrido[2,3-d]pyrimidin-2-yl]-2-(3,5-difluorophenyl)ethyl]-2-[(2S,4S)-9-(trifluoromethyl)-7,8-diazatricyclo[4.3.0.0^2,^4]nona-1(6),8-dien-7-yl]acetamide]",CC50 at 4 days,[1],> 50 nM
same,EC50,[2],0.016 nM
"Cc1cc(C2CCC(F)(F)CC2)nc2nc([C@H](Cc3cc(F)cc(F)c3)NC(=O)Cn3nc(C(F)(F)F)c4c3C(F)(F)[C@@H]3C[C@H]43)n(-c3ccc(Cl)c4c(NS(C)(=O)=O)nn(CCN5CCOCC5)c34)c(=O)c12 (atropisomer, axis not shown; (P)) [Example 116, N-[(1S)-1-[(3P)-3-{4-chloro-3-methanesulfonamido-1-[2-(morpholin-4-yl)ethyl]-1H-indazol-7-yl}-7-(4,4-difluorocyclohexyl)-5-methyl-4-oxo-3H,4H-pyrido[2,3-d]pyrimidin-2-yl]-2-(3,5-difluorophenyl)ethyl]-2-[(2S,4R)-5,5-difluoro-9-(trifluoromethyl)-7,8-diazatricyclo[4.3.0.0^2,^4]nona-1(6),8-dien-7-yl]acetamide]",CC50 at 4 days,[1],> 50 nM
same,EC50,[2],0.012 nM
